From patent publication US10954232B2, “Pyrazole derivative as ALK5 inhibitor and uses thereof” (HANMI PHARMACEUTICAL CO., LTD., priority 2016, dated 2021)

These molecules were tested against T1, ALK5 kinase (Homo sapiens, UniProt P36897) (assay: Activity inhibition test on ALK5 enzyme (LanthaScreen Eu binding kinase assay)). Conditions: kinase tracer 178, 60 minutes at room temperature.
T1 construct: GST; purchased Thermo Fisher Scientific Solutions
T1 sequence (P36897 34-503): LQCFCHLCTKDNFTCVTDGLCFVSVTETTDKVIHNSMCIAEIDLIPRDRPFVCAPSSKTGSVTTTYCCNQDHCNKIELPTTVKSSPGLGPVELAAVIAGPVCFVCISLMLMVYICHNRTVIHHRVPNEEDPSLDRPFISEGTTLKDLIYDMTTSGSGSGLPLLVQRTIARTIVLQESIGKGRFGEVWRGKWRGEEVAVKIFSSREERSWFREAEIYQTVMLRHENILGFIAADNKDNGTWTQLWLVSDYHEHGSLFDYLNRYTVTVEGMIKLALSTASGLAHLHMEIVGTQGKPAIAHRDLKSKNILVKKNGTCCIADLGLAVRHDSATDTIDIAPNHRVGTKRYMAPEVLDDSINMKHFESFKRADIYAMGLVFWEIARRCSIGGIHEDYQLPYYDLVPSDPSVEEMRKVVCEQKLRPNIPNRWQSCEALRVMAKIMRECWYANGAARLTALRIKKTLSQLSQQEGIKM
Protocol: For each of the compounds obtained in Examples 1 to 227, inhibitory activity against ALK5 kinase was measured.
For this, a LanthaScreen Eu binding kinase assay method was used, and ALK5 kinase, a kinase buffer, a kinase tracer 178, and a LanthaScreen Eu-GST binding antibody were all purchased from Thermo Fisher Scientific Solutions. Each of the compounds was made into a 10 mM DMSO solution, and diluted by 1/10 to a concentration of 1 μM to 0.0001 μM with an aqueous solution containing 4% DMSO. The test was performed in 384 well plates (well polystyrene low volume round-bottomed plates). First, 5 μL of the diluted compound solution was added, then 5 μL of the kinase/antibody mixture solution was introduced thereto, and 5 μL of the tracer was introduced thereto. Herein, these were added to each well so that the final kinase concentration became 5 nM, the final Eu-GST binding antibody concentration 2 nM, and the kinase tracer 178 concentration 10 nM, and the result was reacted in a stirrer for 60 minutes at room temperature. Then a fluorescence value was measured using a fluorescence meter (molecular device) ([…], 665 nm emission filter). Herein, as for the degree of compound activity to inhibit the kinase reaction, a phosphorylate rate was calculated from 0% to 100% with respect to a control group according to the protocol included in the kit, and a 50% inhibitory concentration (IC50) value was calculated by obtaining the x-axis concentration in the region where 50% activity was inhibited.
`Cc1cccc(-n2nc(C(=O)Nc3ccc(S(=O)(=O)NCC(F)(F)F)cc3)cc2-c2ccc3ncsc3c2)n1` [Example 58, 5-(benzo[d]thiazol-6-yl)-1-(6-methylpyridin-2-yl)-N-(4-(N-(2,2,2-trifluoroethyl)sulfamoyl)phenyl)-1H-pyrazole-3-carboxyamide] showed an IC50 of 5.6 nM. Molecule `Cc1cccc(-n2nc(C(=O)Nc3ccc(CS(C)(=O)=O)cc3)cc2-c2ccc3ncsc3c2)n1` [Example 59, 5-(benzo[d]thiazol-6-yl)-1-(6-methylpyridin-2-yl)-N-(4-((methylsulfonyl)methyl)phenyl)-1H-pyrazole-3-carboxyamide] has an IC50 of 20 nM. In the case of `Cc1cccc(-n2nc(C(=O)Nc3cccc(CS(N)(=O)=O)c3)cc2-c2ccc3ncsc3c2)n1` [Example 60, 5-(benzo[d]thiazol-6-yl)-1-(6-methylpyridin-2-yl)-N-(3-(sulfamoylmethyl)phenyl)-1H-pyrazole-3-carboxyamide], the IC50 is reported as 13 nM. `Cc1cccc(-n2nc(C(=O)Nc3ccc(CS(N)(=O)=O)cc3)cc2-c2ccc3ncsc3c2)n1` [Example 61, 5-(benzo[d]thiazol-6-yl)-1-(6-methylpyridin-2-yl)-N-(4-(sulfamoylmethyl)phenyl)-1H-pyrazole-3-carboxyamide] showed an IC50 of 10 to 100 nM. Work on `Cc1cccc(-n2nc(C(=O)Nc3ccc(F)c(CS(N)(=O)=O)c3)cc2-c2ccc3ncsc3c2)n1` [Example 62, 5-(benzo[d]thiazol-6-yl)-N-(4-fluoro-3-(sulfamoylmethyl)phenyl)-1-(6-methylpyridin-2-yl)-1H-pyrazole-3-carboxyamide] yielded an IC50 of 16 nM. Work on `Cc1cccc(-n2nc(C(=O)Nc3ccc(NC4CCS(=O)(=O)C4)cc3)cc2-c2ccc3ncsc3c2)n1` (centres unmarked) [Example 63, 5-(benzo[d]thiazol-6-yl)-N-(4-((1,1-dioxidotetrahydrothiophen-3-yl)amino)phenyl)-1-(6-methylpyridin-2-yl)-1H-pyrazole-3-carboxyamide] yielded an IC50 of 3.7 nM. `Cc1cccc(-n2nc(C(=O)Nc3ccncc3)cc2-c2ccc3ncsc3c2)n1` [Example 64, 5-(benzo[d]thiazol-6-yl)-1-(6-methylpyridin-2-yl)-N-(pyridin-4-yl)-1H-pyrazole-3-carboxyamide] was tested, and the IC50 was under 10 nM. Work on `COc1ccc(NC(=O)c2cc(-c3ccc4ncsc4c3)n(-c3cccc(C)n3)n2)cn1` [Example 65, 5-(benzo[d]thiazol-6-yl)-N-(6-methoxypyridin-3-yl)-1-(6-methylpyridin-2-yl)-1H-pyrazole-3-carboxyamide] yielded an IC50 of under 10 nM. Work on `COc1cc(NC(=O)c2cc(-c3ccc4ncsc4c3)n(-c3cccc(C)n3)n2)ccn1` [Example 66, 5-(benzo[d]thiazol-6-yl)-N-(2-methoxypyridin-4-yl)-1-(6-methylpyridin-2-yl)-1H-pyrazole-3-carboxyamide] yielded an IC50 of 3.2 nM. With `CSc1ccc(NC(=O)c2cc(-c3ccc4ncsc4c3)n(-c3cccc(C)n3)n2)cn1` [Example 67, 5-(benzo[d]thiazol-6-yl)-N-(6-(methylthio)pyridin-3-yl)-1-(6-methylpyridin-2-yl)-1H-pyrazole-3-carboxyamide] the IC50 was 9.6 nM. Work on `Cc1cccc(-n2nc(C(=O)Nc3cccc(S(C)(=O)=O)n3)cc2-c2ccc3ncsc3c2)n1` [Example 68, 5-(benzo[d]thiazol-6-yl)-1-(6-methylpyridin-2-yl)-N-(6-(methylsulfonyl)pyridin-2-yl)-1H-pyrazole-3-carboxyamide] yielded an IC50 of 65 nM. `Cc1cccc(-n2nc(C(=O)Nc3ccc(S(C)(=O)=O)nc3)cc2-c2ccc3ncsc3c2)n1` [Example 69, 5-(benzo[d]thiazol-6-yl)-N-(6-(methylsulfonyl)pyridin-3-yl)-1-(6-methylpyridin-2-yl)-1H-pyrazole-3-carboxyamide] was tested, and the IC50 was 4.9 nM. `Cc1cccc(-n2nc(C(=O)Nc3ccnc(S(C)(=O)=O)c3)cc2-c2ccc3ncsc3c2)n1` [Example 70, 5-(benzo[d]thiazol-6-yl)-1-(6-methylpyridin-2-yl)-N-(2-(methylsulfonyl)pyridin-4-yl)-1H-pyrazole-3-carboxyamide] showed an IC50 of 4.6 nM. For `Cc1cccc(-n2nc(C(=O)Nc3ccc(F)nc3)cc2-c2ccc3ncsc3c2)n1` [Example 71, 5-(benzo[d]thiazol-6-yl)-N-(6-fluoropyridin-3-yl)-1-(6-methylpyridin-2-yl)-1H-pyrazole-3-carboxyamide], the IC50 was 8 nM. With `Cc1cccc(-n2nc(C(=O)Nc3ccnc(F)c3)cc2-c2ccc3ncsc3c2)n1` [Example 72, 5-(benzo[d]thiazol-6-yl)-N-(2-fluoropyridin-4-yl)-1-(6-methylpyridin-2-yl)-1H-pyrazole-3-carboxyamide] the IC50 was 11 nM. With `Cc1cccc(-n2nc(C(=O)Nc3ccc(Cl)nc3)cc2-c2ccc3ncsc3c2)n1` [Example 73, 5-(benzo[d]thiazol-6-yl)-N-(6-chloropyridin-3-yl)-1-(6-methylpyridin-2-yl)-1H-pyrazole-3-carboxyamide] the IC50 was 5.8 nM. `Cc1cccc(-n2nc(C(=O)Nc3ccnc(Cl)c3)cc2-c2ccc3ncsc3c2)n1` [Example 74, 5-(benzo[d]thiazol-6-yl)-N-(2-chloropyridin-4-yl)-1-(6-methylpyridin-2-yl)-1H-pyrazole-3-carboxyamide] was tested, and the IC50 was 2.3 nM. Work on `Cc1cccc(-n2nc(C(=O)Nc3nccs3)cc2-c2ccc3ncsc3c2)n1` [Example 75, 5-(benzo[d]thiazol-6-yl)-1-(6-methylpyridin-2-yl)-N-(thiazol-2-yl)-1H-pyrazole-3-carboxyamide] yielded an IC50 of 7.4 nM. `Cc1cccc(-n2nc(C(=O)NCc3ccccc3)cc2-c2ccc3ncsc3c2)n1` [Example 76, 5-(benzo[d]thiazol-6-yl)-N-benzyl-1-(6-methylpyridin-2-yl)-1H-pyrazole-3-carboxyamide] was tested, and the IC50 was about 10 nM. `Cc1cccc(-n2nc(C(=O)NCc3ccccc3F)cc2-c2ccc3ncsc3c2)n1` [Example 77, 5-(benzo[d]thiazol-6-yl)-N-(2-fluorobenzyl)-1-(6-methylpyridin-2-yl)-1H-pyrazole-3-carboxyamide] gave an IC50 of 7.2 nM. Molecule `Cc1cccc(-n2nc(C(=O)NCc3cccc(F)c3)cc2-c2ccc3ncsc3c2)n1` [Example 78, 5-(benzo[d]thiazol-6-yl)-N-(3-fluorobenzyl)-1-(6-methylpyridin-2-yl)-1H-pyrazole-3-carboxyamide] has an IC50 of 3.4 nM. `Cc1cccc(-n2nc(C(=O)NCc3ccc(F)cc3)cc2-c2ccc3ncsc3c2)n1` [Example 79, 5-(benzo[d]thiazol-6-yl)-N-(4-fluorobenzyl)-1-(6-methylpyridin-2-yl)-1H-pyrazole-3-carboxyamide] gave an IC50 of 5.6 nM. Work on `Cc1cccc(-n2nc(C(=O)Nc3cnn(S(C)(=O)=O)c3)cc2-c2ccc3ncsc3c2)n1` [Example 80, 5-(benzo[d]thiazol-6-yl)-1-(6-methylpyridin-2-yl)-N-(1-(methylsulfonyl)-1H-pyrazol-4-yl)-1H-pyrazole-3-carboxyamide] yielded an IC50 of 1.3 nM. For `Cc1cccc(-n2nc(C(=O)Nc3cnn(S(=O)(=O)C4CC4)c3)cc2-c2ccc3ncsc3c2)n1` [Example 81, 5-(benzo[d]thiazol-6-yl)-N-(1-(cyclopropylsulfonyl)-1H-pyrazol-4-yl)-1-(6-methylpyridin-2-yl)-1H-pyrazole-3-carboxyamide], the IC50 was 1.5 nM. Work on `Cc1cccc(-n2nc(C(=O)Nc3cccc(O)c3)cc2-c2ccc3ncsc3c2)n1` [Example 82, 5-(benzo[d]thiazol-6-yl)-N-(3-hydroxyphenyl)-1-(6-methylpyridin-2-yl)-1H-pyrazole-3-carboxyamide] yielded an IC50 of 2.7 nM. `Cc1cccc(-n2nc(C(=O)Nc3ccc(O)cc3)cc2-c2ccc3ncsc3c2)n1` [Example 83, 5-(benzo[d]thiazol-6-yl)-N-(4-hydroxyphenyl)-1-(6-methylpyridin-2-yl)-1H-pyrazole-3-carboxyamide] was tested, and the IC50 was 0.7 nM. Molecule `Cc1cccc(-n2nc(C(=O)Nc3cccc(CO)c3)cc2-c2ccc3ncsc3c2)n1` [Example 84, 5-(benzo[d]thiazol-6-yl)-N-(3-(hydroxymethyl)phenyl)-1-(6-methylpyridin-2-yl)-1H-pyrazole-3-carboxyamide] has an IC50 of 3.9 nM. `Cc1cccc(-n2nc(C(=O)Nc3ccc(CO)cc3)cc2-c2ccc3ncsc3c2)n1` [Example 85, 5-(benzo[d]thiazol-6-yl)-N-(4-(hydroxymethyl)phenyl)-1-(6-methylpyridin-2-yl)-1H-pyrazole-3-carboxyamide] was tested, and the IC50 was 3.8 nM. Molecule `Cc1cccc(-n2nc(C(=O)Nc3ccc(N)cc3)cc2-c2ccc3ncsc3c2)n1` [Example 86, N-(4-aminophenyl)-5-(benzo[d]thiazol-6-yl)-1-(6-methylpyridin-2-yl)-1H-pyrazole-3-carboxyamide] has an IC50 of 1.1 nM.
